Results on 1 compound are retold here after EPA's ToxValDB 9.5 (doi:10.2903/j.efsa.2015.4001).

The subject of data set [1] is Rattus norvegicus.
Data set [2] has as its system Colinus virginianus. The conditions noted are these: acute; oral.
In data set [3] the test system is Oryctolagus sp. The conditions noted are these: developmental; development.
Data set [4] has as its system Apis mellifera. The conditions noted are these: acute, duration: 48 hours, mortality.
Data set [5] concerns Tagia sp.
Data set [6] concerns Mus musculus. The conditions noted are these: organ weight.
The subject of data set [7] is Anas platyrhynchos. As to conditions: reproductive.

In general, NOAEL refers to the highest tested level that showed no adverse finding.

Take `CCOC(=O)COc1cc(-c2nn(C)c(OC(F)F)c2Cl)c(F)cc1Cl` [Pyraflufen-ethyl]: the LD50 in data set [1] (acute, oral, mortality) is over 5000 mg/kg-day; in data set [2] it was over 2000 mg/kg-day; in data set [4] (dermal) it was over 100 µg/piece; in data set [4] (oral, unspecified), over 112 µg/piece. The no observed adverse effect level (NOAEL) in data set [1] (chronic, duration: 2 years, organ weight) came to 20 mg/kg-day; in data set [1] (reproduction developmental) it was 20 mg/kg-day; in data set [3], 20 mg/kg-day; in data set [6] (chronic, duration: 18 months) it was 20 mg/kg-day; in data set [6] (subchronic, duration: 90 days, oral) it was 20 mg/kg-day; in data set [7], 50 mg/kg-day. For the same compound, the LC50 in data set [5] (acute, duration: 14 days, mortality) was over 500 mg/kg. The same compound returned an NOEC in data set [5] (chronic/long-term) of at least 250 mg/kg.
